“Also recorded” adds a separate entry of the source. Ends that are not written are not given here.
Assays:
Staph. aureus DPC5245 = test: Deferred antagonism assay; format: cell-based; settings: producing strain; diameter of zone minus 5 mm; average of duplicates; St. aureus DPC5245
Experimental: (§1) Deferred antagonism assays were performed by replicating strains on GM17 or GM17 x-gal agar plates and allowing them to grow overnight before overlaying with either GM17/BHI/TS/MH agar (0.75% w/v agar) seeded with the appropriate indicator strain. Zone size was calculated as the diameter of the zone of clearing minus the diameter of bacterial growth (5 mm) For higher throughput screening of N20PXX, XM21VX, XXK22T and XXX banks deferred antagonism assays were performed by replicating strains using a 96 pin replicator (Boekel) or spotting 5 μl of a fresh overnight culture on GM17 agar plates and allowing them to grow overnight. […] Additional sets of indicators were employed to further assess/reassess the bioactivity of a number of strains. […] For well-diffusion assays molten agar was cooled to 48° C. and seeded with the appropriate indicator strain. The inoculated medium was rapidly transferred into sterile Petri plates in 50 ml volumes, allowed to solidify and dried. Wells (4.6 mm in diameter) were then made in the seeded plates. Purified nisin and mutant nisins were resuspended in 0.005% acetic acid, serially diluted, 50 μl volumes were dispensed into the aforementioned wells and the plates incubated at 37° C. overnight. Bioactivity was expressed as arbitrary units/ml (AU/ml) and calculated as the reciprocal of the highest dilution that gave a definite zone multiplied by the conversion factor (i.e. 20 when 50 μl was used) (Ryan et al., 1996).
(§2) As a consequence of the enhanced activities of K22T and K22S, a more in-depth investigation of this region was carried out. Saturation mutagenesis was undertaken to create a bank of nisin A hinge derivatives containing the vast majority of possible amino acid substitutions for each position. Although pPTPL was used successfully for random mutagenesis, its relatively large size of approx 10.5 kb was considered unsuitable for the complete plasmid PCR amplification approach utilized for saturation mutagenesis. A smaller (approx 6 kb) E. coli-L. lactis shuttle vector pCI372 was considered to be potentially more useful. Its suitability with respect to the in trans expression of nisA was confirmed by the ability of pDFO5 to restore the nisin positive phenotype. Saturation mutagenesis was performed on each codon using pDF05 and oligonucleotides (Table 5) that replace the specific codon with a NNK triplet, potentially encoding all 20 standard amino acids. Following complete plasmid amplification and introduction into the intermediate Top10 host, sequence analysis of a pooled bank of pDF05 derivatives confirmed randomization. Introduction of these variants into L. lactis NZ9800 allowed the expression of mutant nisin A peptides for further analysis. […] 46 residue conversions were isolated. All strains, regardless of bioactivity, were assessed with a view to comprehensively assessing the consequences of each individual hinge alteration.
(§3) Values are an average of duplicate experiments and represent zone size (diameter of zone minus diameter of bacterial growth (i.e. 5 mm) relative to that of the NZ9800 pCI372nisA control. X=Mutants not identified.

[1] = tested on: Staph. aureus ST528 (MRSA); test: Deferred antagonism assay; format: cell-based; settings: producing strain, diameter of zone minus diameter of bacterial growth (5 mm), average of duplicates
Experimental: as §1, §2, §3

[2] = tested on: Strep. agalactiae ATCC13813; test: Deferred antagonism assay; format: cell-based; settings: producing strain, diameter of zone minus 5 mm, average of duplicates
Experimental: as §1, §2, §3

indicator strains = test: Deferred antagonism assays, various indicator strains (summary); format: cell-based; settings: for bioactivity of the producing strain, in words: in general / against the strains tested; for Target strain against which the hinge mutant was selected for enhanced bioactivity: XX and XXX banks, L. lactis HP*: enhanced or equal; for Target strain against which the hinge mutant was selected for enhanced bioactivity / Strain(s) against which the derivative (producing strain) displays enhanced bioactivity: relative to nisin A-producing control; for Strain(s) against which the derivative (producing strain) displays enhanced bioactivity: value = strains listed
How it was run: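 Producer strains were replicated on GM17 or GM17 x-gal agar, grown overnight, then overlaid with GM17, BHI, TS or MH soft agar (0.75% w/v) seeded with the indicator strain. Zone size was taken as the clearing diameter minus the diameter of bacterial growth (5 mm).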

L. monocytogenes CBC1 = test: Deferred antagonism assay; format: cell-based, Listeria monocytogenes; set-up: key: + = Enhanced bioactivity relative to control; − = Bioactivity equal to or less than control; NA = no activity evident; settings: L. mono CBC1; XX and XXX hinge mutant producers
How it was run: (§4)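 Well-diffusion testing of purified nisin variants in 0.005% acetic acid, serially diluted, 37° C overnight; AU/ml = reciprocal of last dilution with definite zone × 20. Deferred antagonism: overnight GM17 colonies overlaid with seeded soft agar (0.75%); zone = clearing diameter minus 5 mm.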

L. monocytogenes CBC2 = test: Deferred antagonism assay; format: cell-based, Listeria monocytogenes; set-up: key: + = Enhanced bioactivity relative to control; − = Bioactivity equal to or less than control; NA = no activity evident; settings: L. mono CBC2; XX and XXX hinge mutant producers
How it was run: as §4

L. monocytogenes CBC3 = test: Deferred antagonism assay; format: cell-based, Listeria monocytogenes; set-up: key: + = Enhanced bioactivity relative to control; − = Bioactivity equal to or less than control; NA = no activity evident; settings: L. mono CBC3; XX and XXX hinge mutant producers
How it was run: as §4

L. lactis CBC7 = test: Deferred antagonism assay; format: cell-based; set-up: key: + = Enhanced bioactivity relative to control; − = Bioactivity equal to or less than control; NA = no activity evident; settings: XX and XXX hinge mutant producers
How it was run: as §4

L. lactis CBC8 = test: Deferred antagonism assay; format: cell-based; set-up: key: + = Enhanced bioactivity relative to control; − = Bioactivity equal to or less than control; NA = no activity evident; settings: XX and XXX hinge mutant producers
How it was run: as §4

S. aureus CBC4 = test: Deferred antagonism assay; format: cell-based; set-up: key: + = Enhanced bioactivity relative to control; − = Bioactivity equal to or less than control; NA = no activity evident; settings: XX and XXX hinge mutant producers
How it was run: as §4

L. plantarum CBC6 = test: Deferred antagonism assay; format: cell-based, Lactobacillus plantarum; set-up: key: + = Enhanced bioactivity relative to control; − = Bioactivity equal to or less than control; NA = no activity evident; settings: XX and XXX hinge mutant producers
How it was run: as §4

| Substance | zone size relative to that of the NZ9800 pCI372nisA control (Staph. aureus DPC5245) | zone size relative to that of the NZ9800 pCI372nisA control [1] | zone size relative to that of the NZ9800 pCI372nisA control [2] | bioactivity of the producing strain, in words (indicator strains) | also measured |
| --- | --- | --- | --- | --- | --- |
| K22E: nisin A derivative, hinge substitution K22E; no detectable production (ITSISLCTPGCKTGALMGCNMETATCHCSIHVSK; cysteine pairing not given here; also: lantibiotic nisin-A; UniProt P13068 24-57, looked up, variant K22E) | 0% | 0% | 0% |  |  |
| K22R: nisin A derivative, hinge substitution K22R (ITSISLCTPGCKTGALMGCNMRTATCHCSIHVSK; cysteine pairing not given here; also: lantibiotic nisin-A; UniProt P13068 24-57, looked up, variant K22R) | 45% | 42.5% | 56% | greatly reduced bioactivities |  |
| M21Q: nisin A derivative, hinge substitution M21Q (ITSISLCTPGCKTGALMGCNQKTATCHCSIHVSK; cysteine pairing not given here; also: lantibiotic nisin-A; UniProt P13068 24-57, looked up, variant M21Q) | 94% | 92% | 98% | slightly diminished bioactivity |  |
| M21R: nisin A derivative, hinge substitution M21R (ITSISLCTPGCKTGALMGCNRKTATCHCSIHVSK; cysteine pairing not given here; also: lantibiotic nisin-A; UniProt P13068 24-57, looked up, variant M21R) | 61% | 56.5% | 66% | greatly reduced bioactivities |  |
| M21T: nisin A derivative, hinge substitution M21T (ITSISLCTPGCKTGALMGCNTKTATCHCSIHVSK; cysteine pairing not given here; also: lantibiotic nisin-A; UniProt P13068 24-57, looked up, variant M21T) | 112% | 110% | 110% |  |  |
| N20D: nisin A derivative, hinge substitution N20D (ITSISLCTPGCKTGALMGCDMKTATCHCSIHVSK; cysteine pairing not given here; also: lantibiotic nisin-A; UniProt P13068 24-57, looked up, variant N20D) | 0% | 0% | 0% | devoid of bioactivity |  |
| N20Y: nisin A derivative, hinge substitution N20Y (ITSISLCTPGCKTGALMGCYMKTATCHCSIHVSK; cysteine pairing not given here; also: lantibiotic nisin-A; UniProt P13068 24-57, looked up, variant N20Y) | 55% | 33.5% | 30.5% |  |  |
| NisinA QLT (ITSISLCTPGCKTGALMGCQLTTATCHCSIHVSK; not fully specified (bridges); also: lantibiotic nisin-A: lanthionine rings and dehydrated residues, places not given here; UniProt P13068 24-57, looked up, variant N20Q M21L K22T) [nisin A hinge variant QLT (i.e. N20Q, M21L, K22T)] |  |  |  |  | bioactivity relative to a nisin A-producing control (L. monocytogenes CBC1): −; bioactivity relative to a nisin A-producing control (L. monocytogenes CBC2): −; bioactivity relative to a nisin A-producing control (L. monocytogenes CBC3): −; bioactivity relative to a nisin A-producing control (L. lactis CBC7): −; bioactivity relative to a nisin A-producing control (L. lactis CBC8): −; bioactivity relative to a nisin A-producing control (S. aureus CBC4): −; bioactivity relative to a nisin A-producing control (L. plantarum CBC6): −; Target strain against which the hinge mutant was selected for enhanced bioactivity (indicator strains): Strep. agalactiae ATCC 13813; Strain(s) against which the derivative (producing strain) displays enhanced bioactivity (indicator strains): S. agalactiae ATCC13813 |
| NisinA SVA (ITSISLCTPGCKTGALMGCSVATATCHCSIHVSK; not fully specified (bridges); also: lantibiotic nisin-A: lanthionine rings and dehydrated residues, places not given here; UniProt P13068 24-57, looked up, variant N20S M21V K22A) [nisin A hinge variant SVA (i.e. N20S, M21V, K22A)] |  |  |  |  | bioactivity relative to a nisin A-producing control (L. monocytogenes CBC1): −; bioactivity relative to a nisin A-producing control (L. monocytogenes CBC2): +; bioactivity relative to a nisin A-producing control (L. monocytogenes CBC3): +; bioactivity relative to a nisin A-producing control (L. lactis CBC7): +; bioactivity relative to a nisin A-producing control (L. lactis CBC8): +; bioactivity relative to a nisin A-producing control (S. aureus CBC4): +; bioactivity relative to a nisin A-producing control (L. plantarum CBC6): −; Target strain against which the hinge mutant was selected for enhanced bioactivity (indicator strains): C. sporogenes UCC1; number of targets with enhanced activity (indicator strains; of the 8 additional targets tested): 5; Strain(s) against which the derivative (producing strain) displays enhanced bioactivity (indicator strains): C. sporogenes UCC1, L. monocytogenes CBC2 , CBC3, S. aureus CBC4 and L. lactis CBC7 , CBC8; also recorded: C. sporogenes UCC1, L. mono CBC2, CBC3, S. aureus |

Reference: patent US8987193B2, “Nisin derivatives and the use thereof” (University College Cork—National University of Ireland, Cork, priority 2008, dated 2015)
